Structure (SMILES): CCOC(=O)Cc1c(C(=O)OCC)sc(N(CC(=O)OCC)CC(=O)OCC)c1C#N
- solubility (mole fraction) (in acetone, 283.15 K): 0.0364
- solubility (mole fraction) (in acetone, 285.65 K): 0.0394
- solubility (mole fraction) (in acetone, 288.15 K): 0.043
- solubility (mole fraction) (in acetone, 290.65 K): 0.0456
- solubility (mole fraction) (in acetone, 293.15 K): 0.0498
- solubility (mole fraction) (in acetone, 295.65 K): 0.0538
- solubility (mole fraction) (in acetone, 298.15 K): 0.0582
- solubility (mole fraction) (in acetone, 300.65 K): 0.0627
- solubility (mole fraction) (in acetone, 303.15 K): 0.0672
- solubility (mole fraction) (in acetone, 305.65 K): 0.073
- solubility (mole fraction) (in acetone, 308.15 K): 0.079
- solubility (mole fraction) (in acetone, 310.65 K): 0.0853
- solubility (mole fraction) (in acetone, 313.15 K): 0.0921
- solubility (mole fraction) (in acetone, 315.65 K): 0.0995
- solubility (mole fraction) (in acetone, 318.15 K): 0.107
- solubility (mole fraction) (in acetone, 320.65 K): 0.116
- solubility (mole fraction) (in acetone, 323.15 K): 0.126
- solubility (mole fraction) (in acetonitrile, 283.15 K): 0.0196
- solubility (mole fraction) (in acetonitrile, 285.65 K): 0.0211
- solubility (mole fraction) (in acetonitrile, 288.15 K): 0.0234
- solubility (mole fraction) (in acetonitrile, 290.65 K): 0.0255
- solubility (mole fraction) (in acetonitrile, 293.15 K): 0.028
- solubility (mole fraction) (in acetonitrile, 295.65 K): 0.0303
- solubility (mole fraction) (in acetonitrile, 298.15 K): 0.0334
- solubility (mole fraction) (in acetonitrile, 300.65 K): 0.0365
- solubility (mole fraction) (in acetonitrile, 303.15 K): 0.0396
- solubility (mole fraction) (in acetonitrile, 305.65 K): 0.0433
- solubility (mole fraction) (in acetonitrile, 308.15 K): 0.0473
- solubility (mole fraction) (in acetonitrile, 310.65 K): 0.0515
- solubility (mole fraction) (in acetonitrile, 313.15 K): 0.0562
- solubility (mole fraction) (in acetonitrile, 315.65 K): 0.0612
- solubility (mole fraction) (in acetonitrile, 318.15 K): 0.067
- solubility (mole fraction) (in acetonitrile, 320.65 K): 0.0734
- solubility (mole fraction) (in acetonitrile, 323.15 K): 0.0805
- solubility (mole fraction) (in cyclohexane, 283.15 K): 5.19e-05
- solubility (mole fraction) (in cyclohexane, 285.65 K): 6.04e-05
- solubility (mole fraction) (in cyclohexane, 288.15 K): 7.21e-05
- solubility (mole fraction) (in cyclohexane, 290.65 K): 8.6e-05
- solubility (mole fraction) (in cyclohexane, 293.15 K): 0.000102
- solubility (mole fraction) (in cyclohexane, 295.65 K): 0.00012
- solubility (mole fraction) (in cyclohexane, 298.15 K): 0.000142
- solubility (mole fraction) (in cyclohexane, 300.65 K): 0.00017
- solubility (mole fraction) (in cyclohexane, 303.15 K): 0.000199
- solubility (mole fraction) (in cyclohexane, 305.65 K): 0.000236
- solubility (mole fraction) (in cyclohexane, 308.15 K): 0.000279
- solubility (mole fraction) (in cyclohexane, 310.65 K): 0.000324
- solubility (mole fraction) (in cyclohexane, 313.15 K): 0.00038
- solubility (mole fraction) (in cyclohexane, 315.65 K): 0.000444
- solubility (mole fraction) (in cyclohexane, 318.15 K): 0.000516
- solubility (mole fraction) (in cyclohexane, 320.65 K): 0.000596
- solubility (mole fraction) (in cyclohexane, 323.15 K): 0.0007
- solubility (mole fraction) (in ethanol, 283.15 K): 0.000512
- solubility (mole fraction) (in ethanol, 285.65 K): 0.000635
- solubility (mole fraction) (in ethanol, 288.15 K): 0.00079
- solubility (mole fraction) (in ethanol, 290.65 K): 0.000971
- solubility (mole fraction) (in ethanol, 293.15 K): 0.0012
- solubility (mole fraction) (in ethanol, 295.65 K): 0.00148
- solubility (mole fraction) (in ethanol, 298.15 K): 0.00178
- solubility (mole fraction) (in ethanol, 300.65 K): 0.00216
- solubility (mole fraction) (in ethanol, 303.15 K): 0.00264
- solubility (mole fraction) (in ethanol, 305.65 K): 0.0032
- solubility (mole fraction) (in ethanol, 308.15 K): 0.0038
- solubility (mole fraction) (in ethanol, 310.65 K): 0.00457
- solubility (mole fraction) (in ethanol, 313.15 K): 0.00543
- solubility (mole fraction) (in ethanol, 315.65 K): 0.00645
- solubility (mole fraction) (in ethanol, 318.15 K): 0.00768
- solubility (mole fraction) (in ethanol, 320.65 K): 0.00904
- solubility (mole fraction) (in ethanol, 323.15 K): 0.0107
- solubility (mole fraction) (in ethyl acetate, 283.15 K): 0.0224
- solubility (mole fraction) (in ethyl acetate, 285.65 K): 0.0259
- solubility (mole fraction) (in ethyl acetate, 288.15 K): 0.0296
- solubility (mole fraction) (in ethyl acetate, 290.65 K): 0.0339
- solubility (mole fraction) (in ethyl acetate, 293.15 K): 0.0389
- solubility (mole fraction) (in ethyl acetate, 295.65 K): 0.0442
- solubility (mole fraction) (in ethyl acetate, 298.15 K): 0.0509
- solubility (mole fraction) (in ethyl acetate, 300.65 K): 0.0578
- solubility (mole fraction) (in ethyl acetate, 303.15 K): 0.066
- solubility (mole fraction) (in ethyl acetate, 305.65 K): 0.0741
- solubility (mole fraction) (in ethyl acetate, 308.15 K): 0.083
- solubility (mole fraction) (in ethyl acetate, 310.65 K): 0.0927
- solubility (mole fraction) (in ethyl acetate, 313.15 K): 0.105
- solubility (mole fraction) (in ethyl acetate, 315.65 K): 0.118
- solubility (mole fraction) (in ethyl acetate, 318.15 K): 0.132
- solubility (mole fraction) (in ethyl acetate, 320.65 K): 0.146
- solubility (mole fraction) (in ethyl acetate, 323.15 K): 0.163
- solubility (mole fraction) (in isopropanol, 283.15 K): 0.000243
- solubility (mole fraction) (in isopropanol, 285.65 K): 0.000308
- solubility (mole fraction) (in isopropanol, 288.15 K): 0.000386
- solubility (mole fraction) (in isopropanol, 290.65 K): 0.000478
- solubility (mole fraction) (in isopropanol, 293.15 K): 0.000592
- solubility (mole fraction) (in isopropanol, 295.65 K): 0.000736
- solubility (mole fraction) (in isopropanol, 298.15 K): 0.00091
- solubility (mole fraction) (in isopropanol, 300.65 K): 0.00111
- solubility (mole fraction) (in isopropanol, 303.15 K): 0.00135
- solubility (mole fraction) (in isopropanol, 305.65 K): 0.00162
- solubility (mole fraction) (in isopropanol, 308.15 K): 0.00197
- solubility (mole fraction) (in isopropanol, 310.65 K): 0.00236
- solubility (mole fraction) (in isopropanol, 313.15 K): 0.00286
- solubility (mole fraction) (in isopropanol, 315.65 K): 0.00345
- solubility (mole fraction) (in isopropanol, 318.15 K): 0.00413
- solubility (mole fraction) (in isopropanol, 320.65 K): 0.00494
- solubility (mole fraction) (in isopropanol, 323.15 K): 0.00588
- solubility (mole fraction) (in methanol, 283.15 K): 0.0012
- solubility (mole fraction) (in methanol, 285.65 K): 0.00149
- solubility (mole fraction) (in methanol, 288.15 K): 0.0018
- solubility (mole fraction) (in methanol, 290.65 K): 0.0022
- solubility (mole fraction) (in methanol, 293.15 K): 0.00265
- solubility (mole fraction) (in methanol, 295.65 K): 0.00326
- solubility (mole fraction) (in methanol, 298.15 K): 0.00391
- solubility (mole fraction) (in methanol, 300.65 K): 0.00464
- solubility (mole fraction) (in methanol, 303.15 K): 0.00556
- solubility (mole fraction) (in methanol, 305.65 K): 0.00659
- solubility (mole fraction) (in methanol, 308.15 K): 0.00781
- solubility (mole fraction) (in methanol, 310.65 K): 0.00925
- solubility (mole fraction) (in methanol, 313.15 K): 0.0109
- solubility (mole fraction) (in methanol, 315.65 K): 0.0128
- solubility (mole fraction) (in methanol, 318.15 K): 0.015
- solubility (mole fraction) (in methanol, 320.65 K): 0.0174
- solubility (mole fraction) (in methanol, 323.15 K): 0.0198
- solubility (mole fraction) (in n-butanol, 283.15 K): 0.000391
- solubility (mole fraction) (in n-butanol, 285.65 K): 0.000489
- solubility (mole fraction) (in n-butanol, 288.15 K): 0.000608
- solubility (mole fraction) (in n-butanol, 290.65 K): 0.000753
- solubility (mole fraction) (in n-butanol, 293.15 K): 0.00094
- solubility (mole fraction) (in n-butanol, 295.65 K): 0.00115
- solubility (mole fraction) (in n-butanol, 298.15 K): 0.0014
- solubility (mole fraction) (in n-butanol, 300.65 K): 0.00173
- solubility (mole fraction) (in n-butanol, 303.15 K): 0.00215
- solubility (mole fraction) (in n-butanol, 305.65 K): 0.00259
- solubility (mole fraction) (in n-butanol, 308.15 K): 0.00316
- solubility (mole fraction) (in n-butanol, 310.65 K): 0.0039
- solubility (mole fraction) (in n-butanol, 313.15 K): 0.0047
- solubility (mole fraction) (in n-butanol, 315.65 K): 0.00577
- solubility (mole fraction) (in n-butanol, 318.15 K): 0.00696
- solubility (mole fraction) (in n-butanol, 320.65 K): 0.00838
- solubility (mole fraction) (in n-butanol, 323.15 K): 0.0102
- solubility (mole fraction) (in n-propanol, 283.15 K): 0.000617
- solubility (mole fraction) (in n-propanol, 285.65 K): 0.000762
- solubility (mole fraction) (in n-propanol, 288.15 K): 0.000953
- solubility (mole fraction) (in n-propanol, 290.65 K): 0.00118
- solubility (mole fraction) (in n-propanol, 293.15 K): 0.00146
- solubility (mole fraction) (in n-propanol, 295.65 K): 0.0018
- solubility (mole fraction) (in n-propanol, 298.15 K): 0.00219
- solubility (mole fraction) (in n-propanol, 300.65 K): 0.00266
- solubility (mole fraction) (in n-propanol, 303.15 K): 0.00327
- solubility (mole fraction) (in n-propanol, 305.65 K): 0.00403
- solubility (mole fraction) (in n-propanol, 308.15 K): 0.00492
- solubility (mole fraction) (in n-propanol, 310.65 K): 0.006
- solubility (mole fraction) (in n-propanol, 313.15 K): 0.00722
- solubility (mole fraction) (in n-propanol, 315.65 K): 0.00868
- solubility (mole fraction) (in n-propanol, 318.15 K): 0.0104
- solubility (mole fraction) (in n-propanol, 320.65 K): 0.0126
- solubility (mole fraction) (in n-propanol, 323.15 K): 0.015
- solubility (mole fraction) (in toluene, 283.15 K): 0.0122
- solubility (mole fraction) (in toluene, 285.65 K): 0.014
- solubility (mole fraction) (in toluene, 288.15 K): 0.0162
- solubility (mole fraction) (in toluene, 290.65 K): 0.0187
- solubility (mole fraction) (in toluene, 293.15 K): 0.0216
- solubility (mole fraction) (in toluene, 295.65 K): 0.0249
- solubility (mole fraction) (in toluene, 298.15 K): 0.0286
- solubility (mole fraction) (in toluene, 300.65 K): 0.0328
- solubility (mole fraction) (in toluene, 303.15 K): 0.0379
- solubility (mole fraction) (in toluene, 305.65 K): 0.0434
- solubility (mole fraction) (in toluene, 308.15 K): 0.0498
- solubility (mole fraction) (in toluene, 310.65 K): 0.0567
- solubility (mole fraction) (in toluene, 313.15 K): 0.0647
- solubility (mole fraction) (in toluene, 315.65 K): 0.0737
- solubility (mole fraction) (in toluene, 318.15 K): 0.0835
- solubility (mole fraction) (in toluene, 320.65 K): 0.0946
- solubility (mole fraction) (in toluene, 323.15 K): 0.107
